Measurements published in BindingDB's records for doi:10.1016/j.ejmech.2021.113775 (Laboratory For Marine Drugs and Bioproducts of Qingdao …, 2021).

Molecular target: Sphingosine 1-phosphate receptor 2 (Homo sapiens, UniProt O95136)
Assay: Binding affinity to S1PR2 (unknown origin) assessed as dissociation constant measured for 60 secs by surface plasmon resonance assay

Sequence of Sphingosine 1-phosphate receptor 2 (O95136 whole entry): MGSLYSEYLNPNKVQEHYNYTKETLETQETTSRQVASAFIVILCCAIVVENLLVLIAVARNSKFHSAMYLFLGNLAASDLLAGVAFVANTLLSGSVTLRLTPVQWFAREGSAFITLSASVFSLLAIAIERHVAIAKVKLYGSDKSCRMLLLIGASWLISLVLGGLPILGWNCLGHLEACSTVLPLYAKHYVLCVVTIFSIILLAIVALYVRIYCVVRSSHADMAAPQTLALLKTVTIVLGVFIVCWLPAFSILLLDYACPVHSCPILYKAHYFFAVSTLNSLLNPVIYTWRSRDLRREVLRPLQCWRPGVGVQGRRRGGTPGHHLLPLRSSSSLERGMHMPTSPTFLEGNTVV

SMILES	koff
O=C(Nc1cc(Cl)cc(Cl)c1)Nc1cc(Cl)nc(Cl)c1	0.116 s⁻¹
O=C(Nc1cc(Cl)nc(Cl)c1)Nc1cc2ccc(-c3ccccc3)cn2n1	0.201 s⁻¹
Cc1nn(C)c2nc(NNC(=O)Nc3cc(Cl)nc(Cl)c3)cc(C(C)C)c12	0.161 s⁻¹
Cn1ccc2c(-c3ccccc3)nc(NNC(=O)Nc3cc(Cl)nc(Cl)c3)nc21	0.136 s⁻¹
Cc1cc(NC(=O)Nc2cc(Cl)nc(Cl)c2)cc(C)n1	0.146 s⁻¹
O=C(NNc1nc(N2CCOCC2)c2ccn(C3CC3)c2n1)Nc1cc(Cl)nc(Cl)c1	0.133 s⁻¹
O=C(Nc1cc(Cl)nc(Cl)c1)Nc1cc(Cl)nc(Cl)c1	0.697 s⁻¹
CN(C)c1nc(NNC(=O)Nc2cc(Cl)nc(Cl)c2)nc2c1ccn2C	0.102 s⁻¹
COc1ccc(-c2ccc3cc(NC(=O)Nc4cc(Cl)nc(Cl)c4)nn3c2)cc1	0.112 s⁻¹
Cc1cc(NC(=O)Nc2cc(Cl)nc(Cl)c2)n(C)n1	0.177 s⁻¹
CN1CCN(C(=O)Nc2cc(Cl)nc(Cl)c2)CC1	0.106 s⁻¹
O=C(Nc1ccnc(Cl)c1)Nc1cc(Cl)nc(Cl)c1	0.201 s⁻¹
O=C(NNc1nc(Nc2ccccc2)nc(N2CCCC2)n1)Nc1cc(Cl)nc(Cl)c1	0.133 s⁻¹

Second part, the compound after the results:

koff	SMILES
0.236 s⁻¹	CNc1cc(C)nc(NNC(=O)Nc2cc(Cl)nc(Cl)c2)n1
0.116 s⁻¹	O=C(Nc1cc(Cl)nc(Cl)c1)Nc1cc2ccccn2n1
0.102 s⁻¹	CCOc1cc(NC(=O)Nc2cc(Cl)nc(Cl)c2)cc(Cl)n1
0.312 s⁻¹	COc1c(Cl)cc(NC(=O)Nc2cc(Cl)nc(Cl)c2)cc1Cl
0.119 s⁻¹	CC(C)Oc1cc(NC(=O)Nc2cc(Cl)nc(Cl)c2)cc(Cl)n1
0.179 s⁻¹	O=C(Nc1cc(Cl)nc(Cl)c1)Nc1cc(Cl)nc(OC2CCCC2)c1
0.219 s⁻¹	COc1cc(NC(=O)Nc2cc(Cl)nc(Cl)c2)cc(Cl)n1
